These results are taken from ChEMBL document CHEMBL1250514, “Fragment-based drug discovery applied to Hsp90. Discovery of two lead series with high ligand efficiency” (J Med Chem, 2010).

This experiment addresses Heat shock protein HSP90 (Homo sapiens, UniProt P07900+P08238).
Description: Binding affinity to human N-terminal ATPase domain of Hsp90 by isothermal titration calorimetry
`CC(C)c1cc(C(=O)N2Cc3ccccc3C2)ccc1O`: the Kd (as a rule, the constant that tells how readily two partners part at equilibrium) amounted to 0.068 µM. On to `Nc1nc(Cl)cc(-c2ccccc2Cl)n1`, for which the Kd came out at 0.083 µM. As for `CCN(CC)C(=O)c1ccc(O)c(C(C)C)c1`, the dissociation constant Kd stood at 7 µM.

`CCN(CC)C(=O)c1ccc(O)c(C(C)(C)C)c1` came in with a Kd of 8.6 µM. The figure for `Nc1nc(Cl)cc(-c2ccc(Cl)cc2Cl)n1` is 0.012 µM; for `CC(=O)N1CCN(C(=O)c2ccc(O)c(C(C)(C)C)c2)CC1` it is 2.5 µM; for `CC(C)(C)c1cc(C(=O)N2CCc3ccccc3C2)ccc1O` it is 2.5 µM. The compound `CCN(CC)C(=O)c1ccc(O)c(Cl)c1` had a dissociation constant (Kd) of 1130 µM. For the compound `CC(C)c1cc(C(=O)N2CCOCC2)c(O)cc1O`, the Kd was found to be 0.011 µM. The figure for `Nc1nc(Cl)cc(-c2ccccc2)n1` is 2 µM; for `CCN(CC)C(=O)c1cc(C(C)C)ccc1O` it is 51 µM; for `CC(C)c1cc(C(=O)N2CCc3ccccc3C2)ccc1O` it is 0.128 µM.

Take `COc1ccc(-c2cc(Cl)nc(N)n2)c(Cl)c1`: the Kd came to 0.028 µM. The figure for `COc1cccc(Cl)c1-c1cc(Cl)nc(N)n1` is 0.036 µM. `COc1ccc(Cl)c(-c2cc(Cl)nc(N)n2)c1`: the Kd stood at 0.048 µM. Turning to `CC(C)(C)c1cc(C(=O)N2CCC(O)CC2)ccc1O`, the dissociation constant Kd was 2.3 µM. On to `COc1cccc(OC)c1-c1cc(Cl)nc(N)n1`, for which the Kd is 0.068 µM. The figure for `CCc1cc(C(=O)N(CC)CC)ccc1O` is 45 µM. The figure for `CC(C)(C)c1cc(C(=O)N2CCN(c3ccccn3)CC2)ccc1O` is 0.25 µM; for `CC(C)c1cc(C(=O)N2CCOCC2)ccc1O` it is 0.4 µM.

In turn, `COc1cc(-c2cc(Cl)nc(N)n2)c(Cl)cc1Cl` registered a Kd of 0.0063 µM. Compound `CCN(CC)C(=O)c1cc(C(C)(C)C)ccc1O` had an equilibrium dissociation constant (Kd) of 134 µM.
